Results as given in ChEMBL document CHEMBL1201862, “PubChem BioAssay data set” (2004).
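Test compounds were applied to cells in 96-well plates for 48 hours at 5 doses. GI50 = concentration required for 50% inhibition of growth.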 Calls of active or inactive are those of the source. No stated cut-off is given here; in the data, active = GI50 up to about 1.1 µM and inactive = higher.

Columns and labels:
Assay in all cases: NCI tumour cell line growth inhibition, 48 h
[1] = tested on: DU-145
[2] = tested on: T47D
[3] = tested on: BT-549
[4] = tested on: Hs-578T

Measured: GI50

S=C1NN=C2C(=C3CCCC4C5CCCCC5N2C34)N1 (centres undefined)
inactive: [1] > 100 µM | [2] 24.8 µM | [3] > 100 µM | [4] > 100 µM
